The test system of series [1] is rat beta cells. The series is described as follows: Beta cell viability / cell death (propidium iodide assay). The settings on record: for Percent viable cells: LOPAC screen at 1 μM, adult rat beta cells, day 6, control medium 97. The class given is cell-based. The source says: Numbers of living beta cells were obtained by subtracting the PI-positive cell numbers from the Ho-positive cell numbers, and correcting for the percent insulin-negative cells, as determined following insulin-immunofluorescence staining. They were expressed as percent of the numbers on day 1. […] To detect beta cells that underwent two successive cycles, cells were sequentially exposed to two different thymidine-analogs, first EdU from day 3 to 6, and then BrdU (100 μmol/l) from day 7 to 10, with a 24-hour label-free period in between. EdU-positive (EdU^+) nuclei were detected with the Click-iT Assay kit (Invitrogen), while BrdU-positive (BrdU^+) nuclei were identified with anti-BrdU antibody.
(§1) Absolute number of cells was determined by whole-well imaging using the BD-PathwayBioimager855 (BD-Biosciences). IPLab and AttoVision software packages (BD-Biosciences) were used for image background subtraction, segmentation and quantification.
Freshly purified beta cells were cultured in control medium for 24 h prior to the addition of the LOPAC test compounds (day 1). The culture medium was refreshed on day 3 and the cells were then cultured further with 5-ethynyl-2′-deoxyuridine (EdU; 10 μM) up to day 6. […] Thus, a compound is considered a hit only if it increases the percent EdU incorporation to above three standard deviation of the plate-averaged percent EdU incorporation.

The test system of series [2] is rat beta cells. The series can be described thus: Beta cell DNA synthesis/proliferation by EdU (and BrdU) incorporation, incl. LOPAC screen. The settings on record: for Percent EdU+ cells / Z-Score: LOPAC screen at 1 μM, adult rat beta cells, EdU day 3 to 6; for Percent EdU+ cells: control medium 5.6; for Z-Score: hit cut-off three standard deviations. The class given is cell-based. On the procedure:
(§2) On day 1, 9 and 15 of culture, total numbers of living beta cells per well were determined by semi-automatic cell count, after Hoechst 33342 (Ho) and propidium iodide (PI) staining. Numbers of living beta cells were obtained by subtracting the PI-positive cell numbers from the Ho-positive cell numbers, and correcting for the percent insulin-negative cells, as determined following insulin-immunofluorescence staining. They were expressed as percent of the numbers on day 1. Each condition was also evaluated for increases in the percentage of proliferating beta cells (incorporating the thymidine-analogue 5-ethynyl-2′-deoxyuridine, EdU; 100 μmol/l). To detect beta cells that underwent two successive cycles, cells were sequentially exposed to two different thymidine-analogs, first EdU from day 3 to 6, and then BrdU (100 μmol/l) from day 7 to 10, with a 24-hour label-free period in between. EdU-positive (EdU^+) nuclei were detected with the Click-iT Assay kit (Invitrogen), while BrdU-positive (BrdU^+) nuclei were identified with anti-BrdU antibody.
Freshly purified beta cells were cultured in control medium for 24 h prior to the addition of the LOPAC test compounds (day 1). The culture medium was refreshed on day 3 and the cells were then cultured further with 5-ethynyl-2′-deoxyuridine (EdU; 10 μM) up to day 6. Cell viability and percentage EdU incorporation were quantified after imaging and image analysis using the BD Pathway Bioimager, as described before (Assefa et al., 2014). To test the significance of compound effect on beta cell proliferation, average Z-score for each compound was calculated and a cut-off for potential positive hits was set at a Z-score of greater than three standard deviations. Thus, a compound is considered a hit only if it increases the percent EdU incorporation to above three standard deviation of the plate-averaged percent EdU incorporation.
(§3) Sorted beta cells were seeded in 384-well or 6-well plates coated with 804G matrix, and kept in culture for up to 15 days at 37° C. 5% CO2 using Ham F10 supplemented with 1 mM L-glutamine, 0.1 mg/ml streptomycin, 0.075 mg/ml penicillin, 50 μM of isobutyl-1-methylxanthine (IBMX) at 10 mM D-glucose with and without synthetic GCs (6 methyl-prednisolone (6MP), dexamethasone (DEX), GR-modulators (compound A (CPA), mifepristone (MIF), and NFκB inhibitors (JSH-23 en Bay11-7085). Total cell number and beta cell viability was evaluated after incubation with Hoechst 33342 and propidium iodide. All chemicals were from Sigma Life Sciences or Merck. Quantification of cell numbers and analysis of beta-cell viability was done using the Pathway Bioimager (BD Biosciences) and using IPlab and Attovision software for background subtraction as described prior (Assefa et al., 2014). Replicating beta cells were quantified after 24 or 72 hrs incubation with 5-ethynyl-2′-deoxyuridine (EdU, a thymidine analog) using the ClickIT EDU Alexa Fluor assay (Invitrogen). EdU-positive cells were expressed as percentage of total cell number.

The test system of series [3] is rat beta cells. The series is described as follows: Cellular insulin content, insulin release and glucose-stimulated insulin secretion of cultured beta cells. Format: cell-based. As for the experimental part:
(§4) Beta cells were FACS-purified from islet-cell enriched suspensions (Pipeleers et al., 1985) prepared from neonatal (2-3 days-old) and adolescent or adult (8 or 40-week-old, male) Wistar rats (Janvier Bioservices, France); their purity was, respectively 70-75% and over 90%. Sorted cells were counted in a hemocytometer, seeded (day 0) and cultured for up to 15 days in serum-free Ham's-F10 medium at 5, 10 or 20 mmol/l glucose, supplemented with 2 mmol/l L-glutamine, 50 μM 3-isobutyl-1-methylxanthine, 0.5% Albumax-I, penicillin (100 U/ml) and streptomycin (0.1 mg/ml). The 10 mmol/l glucose condition is known to maintain beta cell survival over 9-days (Ling et al., 1994; Ling and Pipeleers, 1994). Medium and cells were retrieved after selected culture periods and assayed for insulin content; data were expressed as a function of the number of living beta cells that was determined in parallel wells.

Series [4] deals with GR trans-repression and trans-activation targets, cell cycle genes and beta cell phenotype markers. The series is described as follows: Q-PCR of mRNA levels in cultured beta cells. The note with it: 9 days culture; 1 μM 6MP, 1 μM MIF, 0.5 μM CPA; vehicle = 1.0. Format: cell-based, rat.
For series [5], the system named is rat beta cells. The series can be described thus: Number of living beta cells in culture (Hoechst 33342/propidium iodide whole-well imaging counts; expansion assay). Format: cell-based. On the procedure: as §4, §2, §1
Experimental procedures for isolation of beta cells from neonatal (2-3 days old) and adult (8 or 40 week old, male) Wistar rats (Janvier Bioservices, France) and analysis of their number, viability and proliferation activity in culture have been described before (Assefa et al., 2014). Sorted beta cells were seeded in 804G matrix-coated plates (designated as day 0) and the numbers and viability of seeded cells at the start of all experiments were determined on day 1 (24 h after seeding). The cells were cultured in control medium, which is a serum-free Ham's F10 medium supplemented with 2 mM L-glutamine, 50 μM 3-isobutyl-1-methylxanthine, 0.5% Albumax I, penicillin (100 U/ml), streptomycin (0.1 mg/ml) and, unless indicated otherwise, 10 mM glucose.
as §3, with “2014).” for “2014). Replicating beta cells were quantified after 24 or 72 hrs incubation with 5-ethynyl-2′-deoxyuridine (EdU, a thymidine analog) using the ClickIT EDU Alexa Fluor assay (Invitrogen). EdU-positive cells were expressed as percentage of total cell number.”

Consider `C[C@@H]1C[C@@H]([C@H](O)CC2CC(=O)NC(=O)C2)C(=O)[C@@H](C)C1` [cycloheximide], for which, in series [1] (within 48 h, purified rat beta cells), the “number of dead cells (induction of apoptosis)” value is “dose-dependent increase in the number of dead cells”.

As for `C[C@H]1C[C@H]2[C@@H]3CCC4=CC(=O)C=C[C@]4(C)[C@@]3(Cl)[C@@H](O)C[C@]2(C)[C@@]1(O)C(=O)CO` [Beclomethasone], in series [2], the “Percent EdU+ cells” value is reported as 20.6% and the Z-Score came out at 5.9. Besides, the Percent viable cells in series [1] turned out to be 96%.

For the compound `C[C@H]1C[C@@H]2[C@H]([C@@H](O)C[C@@]3(C)[C@H]2CC[C@]3(O)C(=O)CO)[C@@]2(C)C=CC(=O)C=C12` [6MP, 6-methylprednisolone], in series [3] (9 days, 6MP followed by 6 days, basal), the “Insulin Release during last 72 h of culture” value turned out to be 1.6 ± 1 ng/10^3 cells/h. Further, the “glucose-induced insulin secretion, Day 15” value in series [3] (9 days, 6MP followed by 6 days, basal, 2.5 mM glucose) is reported as 24.4 ± 3.3 % of content/h. In addition, in series [3] (9 days, 6MP followed by 6 days, basal, 5 mM glucose), the “glucose-induced insulin secretion, Day 15” value is given as 34.3 ± 3.9 % of content/h. The “glucose-induced insulin secretion, Day 15” value in series [3] (9 days, 6MP followed by 6 days, basal, 10 mM glucose) is given as 46.8 ± 7.7 % of content/h. In addition, the “glucose-induced insulin secretion, Day 15” value in series [3] (9 days, 6MP followed by 6 days, basal, 20 mM glucose) is 52.1 ± 1.8 % of content/h. Further, the “Insulin Release during last 72 h of culture” value in series [3] (15 days, 6MP) is listed as 0.9 ± 0.1 ng/10^3 cells/h. Further, the “glucose-induced insulin secretion, Day 15” value in series [3] (15 days, 6MP, 2.5 mM glucose) is on record as 35.3 ± 7.4 % of content/h. Further, the “glucose-induced insulin secretion, Day 15” value in series [3] (15 days, 6MP, 5 mM glucose) is reported as 37.7 ± 4.0 % of content/h. The “glucose-induced insulin secretion, Day 15” value in series [3] (15 days, 6MP, 10 mM glucose) was 43.2 ± 6.8 % of content/h. In series [3] (15 days, 6MP, 20 mM glucose), the “glucose-induced insulin secretion, Day 15” value is listed as 44.0 ± 4.8 % of content/h. Also, in series [4], the “CDK4 mRNA level (ΔΔCt values relative to basal vehicle control)” value is on record as 1.7 ± 0.2^2, the “CXCL11 mRNA level (ΔΔCt values relative to basal vehicle control)” value is given as 0.1 ± 0.0^3, the “Cyclin B1 mRNA level (ΔΔCt values relative to basal vehicle control)” value was 4.7 ± 0.7^3 and the “Cyclin B2 mRNA level (ΔΔCt values relative to basal vehicle control)” value is given as 4.8 ± 0.8^3. Also, in series [4], the “Cyclin E1 mRNA level (ΔΔCt values relative to basal vehicle control)” value is 2.3 ± 0.3^3, the “CyclinD1 mRNA level (ΔΔCt values relative to basal vehicle control)” value is 0.8 ± 0.1^, the “DLK1 mRNA level (ΔΔCt values relative to basal vehicle control)” value was 24491 ± 5157^3 and the “FKBP4 mRNA level (ΔΔCt values relative to basal vehicle control)” value is recorded as 1.2 ± 0.1^. In series [4], the “FKBP5 mRNA level (ΔΔCt values relative to basal vehicle control)” value is 15.4 ± 2.2^3, the “GDF11 mRNA level (ΔΔCt values relative to basal vehicle control)” value is on record as 3.8 ± 1.0^3, the “ICAM1 mRNA level (ΔΔCt values relative to basal vehicle control)” value is given as 0.1 ± 0.1^3 and the “MKP1 mRNA level (ΔΔCt values relative to basal vehicle control)” value was 20.7 ± 4.2^3. Moreover, in series [4], the “MafA mRNA level (ΔΔCt values relative to basal vehicle control)” value is 0.2 ± 0.1^3, the “MafB mRNA level (ΔΔCt values relative to basal vehicle control)” value was 5.1 ± 0.9^3, the “NNAT mRNA level (ΔΔCt values relative to basal vehicle control)” value is 7.4 ± 1.8^3 and the “NPY mRNA level (ΔΔCt values relative to basal vehicle control)” value was 3.8 ± 0.6^3. In series [4], the “NR3C1 mRNA level (ΔΔCt values relative to basal vehicle control)” value is 1.0 ± 0.1^, the “Pdx1 mRNA level (ΔΔCt values relative to basal vehicle control)” value is 0.5 ± 0.2^3 and the “TRH mRNA level (ΔΔCt values relative to basal vehicle control)” value is reported as 5.3 ± 0.5^3. For the same compound, the “final concentration of optimal potency (dose-response studies)” value in series [2] (survival and proliferation of rat beta cells, data not shown) stood at 1 µM. For the same compound, the “cells after 15-day culture compared to day 1 numbers” value in series [5] (10 mM glucose and MP) worked out at 152±5%. Further, in series [5] (6MP 1 μM, DEX 0.01 μM, CPA 0.5 μM), the “change of beta cell numbers between day 1 and 15” value was “nearly double”. Further, the “increase in absolute number of living beta cells in culture” value in series [5] (two-weeks culture) is listed as “near population doubling”.

For the compound `C[C@H]1C[C@H]2[C@@H]3CCC4=CC(=O)C=C[C@]4(C)[C@@]3(F)[C@@H](O)C[C@]2(C)[C@@]1(O)C(=O)CO` [Betamethasone], in series [2], the “Percent EdU+ cells” value was determined as 21.1% and the Z-Score amounted to 5.5. Further, the Percent viable cells in series [1] was 95%.

Regarding `CS(=O)(=O)c1ccc([C@@H](CC2CCCC2)C(=O)Nc2nccs2)cc1` [GKA, RO-28-1675], the “effect of 15-day continuous treatment on beta cell survival” value in series [1] (10 mM glucose, irrespective of MP, data not shown) is “induces cytotoxicity and a net cell loss”. Further, in series [1] (GKA 3 μm, beta cells from 8- and 40-week old rats, 5 mmol/l glucose, data not shown), the “marked cytotoxicity at day 15” value is listed as “not observed”. Besides, the “dead cells at day 15 (cytotoxicity)” value in series [1] (GKA 3 μm, neonatal beta cells, 5 mmol/l glucose) is given as greater than 50%.

As to `CCCC1O[C@@H]2C[C@H]3[C@@H]4CCC5=CC(=O)C=C[C@]5(C)[C@H]4[C@@H](O)C[C@]3(C)[C@]2(C(=O)CO)O1` (stereo partly shown) [Budesonide], in series [2], the “Percent EdU+ cells” value worked out at 24.9% and the Z-Score amounted to 4.1. The Percent viable cells in series [1] stood at 97%.

Values taken from patent US20160274087A1, “SCREENING ASSAY FOR AGENTS THAT INFLUENCE BETA CELL NUMBER AND/OR PHENOTYPE” (VRIJE UNIVERSITEIT BRUSSEL, priority 2013, published 2016).
